Experimental data from patent publication US12673955B2, “Crystal form of p-toluenesulfonate salt of diazabicyclic compound and preparation method therefor” (CRYSTAL PHARMATECH CO., LTD., priority 2020, dated 2026).

Legend:
Assay type in all cases: physicochemical
[1] = Compressibility of crystalline form (manual tablet press, 350 MPa)
Procedure: A manual tablet press was used for tabletting. Appropriate amount of tosylate Form A and solid in the prior art were compressed by circle punches under 350 MPa pressure to form a tablet. Hardness (H) of the tablet was determined to be 18.36 N by a tablet hardness tester. Diameter (D) and thickness (L) of the tablet were determined to be 6 mm and 1.02 mm by a vernier caliper, respectively. The tensile strength of the tablets was calculated to be 1.9 MPa through the equation of T=2H/πDL.

[2] = PSD test (laser particle size analyzer, wet method)
Procedure: The particle size distribution results of the present disclosure were collected on S3500-type laser particle size analyzer of the Microtrac company. The Microtrac S3500 was equipped with an SDC (Sample Delivery Controller) sampling system. The wet method was used in this test, using Isopar G (containing 0.2% lecithin) as the test dispersion medium. The process parameters of the laser particle size analyzer were as follows.
Approximately 10-30 mg of tosylate Form A solid was added into 10 mL of Isopar G (containing 0.2% lecithin). The mixture was mixed thoroughly and transferred into the SDC. The experiment was started when the obscuration is in appropriate range. The particle size distribution (PSD) was tested before and after 30 seconds of ultrasound.

[3] = Intrinsic dissolution of crystalline form; details: pH 6.8 phosphate buffer, 900 mL, 37° C., paddle, tablet surface 0.5 cm^2
Procedure: The intrinsic dissolution rate data of the present disclosure were collected on an Agilent 708DS-type dissolution apparatus of the Agilent company. The intrinsic dissolution test conditions were as follows.
Approximately 100 mg of tosylate Form A and the solid in the prior art were added into the cavity of the die, and then compressed at 5 KN and held for 1 minute to obtain a tablet having a surface area of 0.5 cm^2.

[4] = Stability study of tosylate Form A (XRPD and chemical impurity after storage)
Procedure: Approximately 10 mg of tosylate Form A were stored under different conditions of 25° C./60% RH and 40° C./75% RH. XRPD and chemical impurity were checked at 1 week, 2 weeks, 4 weeks and 8 weeks.
Based on the above results, tosylate Form A kept stable for at least 8 weeks.

[5] = Hygroscopicity study by dynamic vapor sorption (DVS)
Procedure: The dynamic vapor sorption diagrams of the present disclosure were collected on Intrinsic-type and Intrinsic Plus-type dynamic vapor sorption instruments of SMS company. The parameters of the dynamic vapor sorption test of the present disclosure were as follows: • Temperature: 25° C. • Protection gas and flow rate: N2, 200 m L/min • dm/dt: 0.002%/min • Minimum dm/dt equilibration time: 10 min • Maximum Equilibration Time: 180 min • Relative humidity range: 0% RH-95% RH-0% RH • Relative humidity gradient: 10% (0% RH-90% RH-0% RH), 5% (90% RH-95% RH and 95% RH-90% RH).
Dynamic vapor sorption (DVS) was applied to test hygroscopicity of tosylate Form A solid and solid in the prior art with about 10 mg of samples. XRPD patterns were collected.
Non-hygroscopic or almost non hygroscopic: increase in mass is less than 0.2 percent.

[6] = Solubility of crystalline form (saturated solutions measured by HPLC); details: for solubility at 1 h / solubility at 2 h / solubility at 4 h / solubility at 24 h: thermodynamic from solid
Procedure: Tosylate Form A and solid in the prior art were suspended into SGF, FaSSIF, FeSSIF and water to get saturated solutions. After equilibrated for 1 hour, 2 hours, 4 hours and 24 hours, concentrations of the saturated solutions were measured by HPLC.

[7] = Adhesiveness propensity study (material sticking to the punch); details: 8 mm round tooling, 10 kN, 30 s
Procedure: Approximately 30 mg of tosylate Form A and the solid in the prior art were weighed and then added into the dies of 8 mm round tooling, compressed at 10 kN pressure and held for 30 s. The punch was weighed and amount of material sticking to the punch was calculated. The compression was repeated once and the cumulative amount, maximum amount and average amount of material sticking to the punch during the compression were recorded.

[8] = Crystal habit by polarized light microscopy
Source text: The polarized light microscope photos of the present disclosure were taken at room temperature with a Zeiss microscope Axio Scope.A1 equipped with an Axiocam 305 color camera and 5×, 10×, 20× and 50× objective lenses.

[9] = Isopar G containing 0.2% lecithin
[10] = 25° C./60% RH and 40° C./75% RH, up to 8 weeks

Cn1cc(Nc2nccc(N3C[C@H]4CC[C@@H](C3)N4C(=O)[C@@H]3CC3(F)F)n2)cn1 [tosylate Form A, ((1S)-2,2-difluorocyclo-propyl) ((1R,5S)-3-(2-((1-methyl-1H-pyrazol-4-yl)amino)pyrimidin-4-yl)-3,8-diazabicyclo[3.2.1]octan-8-yl)methanone]
compressibility ([1]; 350 MPa pressure): good compressibility
tensile strength of the tablets ([1]; calculated by T=2H/πDL, tablet compressed under 350 MPa): 1.9 MPa
Hardness (H) of the tablet ([1]; tablet compressed under 350 MPa, diameter 6 mm, thickness 1.02 mm): 18.36 N
change of particle size distribution after sonication ([2]; 30 seconds of ultrasound): no obvious change or agglomeration
mean particle size (MV) [2, 9]: 400 μm
particle size distribution shape [2, 9]: unimodal distribution
intrinsic dissolution rate compared with the solid in the prior art [3]: higher dissolution rate than the solid in the prior art
time kept stable ([4]; 25° C./60% RH and 40° C./75% RH): at least 8 weeks
Crystalline state after storage [4, 10]: doesn't change
chemical purity after storage [4, 10]: above 99%
Puriy ([4]; 25° C./60% RH, 1 week): 99.92%
Puriy ([4]; 25° C./60% RH, 2 weeks): 100.0%
Puriy ([4]; 25° C./60% RH, 4 weeks): 99.89%
Puriy ([4]; 25° C./60% RH, 8 weeks): 99.92%
Puriy ([4]; 40° C./75% RH, 1 week): 99.90%
Puriy ([4]; 40° C./75% RH, 2 weeks): 99.91%
Puriy ([4]; 40° C./75% RH, 4 weeks): 99.90%
Puriy ([4]; 40° C./75% RH, 8 weeks): 99.91%
form change after DVS test (XRPD) ([5]; 0% RH-95% RH-0% RH, 25° C.): no obvious form change
hygroscopicity class ([5]; Chinese Pharmacopoeia 2015 definition, from DVS weight gain at 80% RH): slightly hygroscopic
weight gain (DVS) ([5]; at 80% RH, 25° C.): 0.35%
hygroscopicity compared with the prior art ([5]; versus solid in the prior art): relatively lower hygroscopicity
solubility compared with solid in the prior art ([6]; SGF, FaSSIF, FeSSIF and water): higher than that of solid in the prior art
solubility at 1 h ([6]; simulated gastric fluid, SGF): 5540 µg/mL
solubility at 2 h ([6]; simulated gastric fluid, SGF): 5990 µg/mL
solubility at 4 h ([6]; simulated gastric fluid, SGF): 5080 µg/mL
solubility at 24 h ([6]; simulated gastric fluid, SGF): 5690 µg/mL
solubility at 1 h ([6]; FaSSIF): 7120 µg/mL
solubility at 2 h ([6]; FaSSIF): 7310 µg/mL
solubility at 4 h ([6]; FaSSIF): 7300 µg/mL
solubility at 24 h ([6]; FaSSIF): 7540 µg/mL
solubility at 1 h ([6]; FeSSIF): 6770 µg/mL
solubility at 2 h ([6]; FeSSIF): 7030 µg/mL
solubility at 4 h ([6]; FeSSIF): 7340 µg/mL
solubility at 24 h ([6]; FeSSIF): 7780 µg/mL
solubility at 1 h ([6]; water, H2O): 5260 µg/mL
solubility at 2 h ([6]; water, H2O): 5340 µg/mL
solubility at 4 h ([6]; water, H2O): 5240 µg/mL
solubility at 24 h ([6]; water, H2O): 5560 µg/mL
adhesiveness compared with the prior art solid [7]: superior to the prior art solid
flowability ([8]; inferred from crystal habit): good flowability
crystal habit ([8]; polarized light microscopy): rod-like particles
